# Experimental data taken from US5541183A, “Ginkgolide derivatives” (priority 1993, dated 1996).
# pIC50: −log10 of the molar value. Like-named read-outs stand apart in the source and are kept apart here.
# Assays:
# [1] = tested on: PAF-induced rabbit platelet aggregation; test: PAF-induced rabbit platelet aggregation; format: cell-based, rabbit (New Zealand white); details: Oryctolagus cuniculus, read-out: IC50, inhibition of PAF-induced rabbit platelet aggregation
# Experimental: Pharmacology Example 1: PAF-induced rabbit platelet aggregation
# Blood was collected from the ear artery of a male New Zealand white rabbit and mixed with 3.8% sodium citrate in a 9:1 volume ratio. Platelet rich plasma (PRP) was obtained by centrifugation of the blood at 150 g for 10 min at room temperature. The number of platelets was adjusted to 3×10^8 platelets/ml with platelet poor plasma. Platelet aggregation was monitored by continuous recording of light transmission in a dual-channel aggregometer (Chrono-Log 560-VS) coupled with a two channel recorder (Chrono-Log 707). Stirred PRP was treated with various concentrations of the test compounds or vehicle (0.5% DMSO) for 2 min and then PAF(5×10^-9 M) was added to induce platelet aggregation.
# Inhibition values were calculated by comparing the extent of aggregation obtained in the presence of the vehicle alone (0.5% DMSO) and in the presence of a test compound. Log concentration-response curves were generated and the IC50 values were determined by regression analysis.
# Table 1 lists results from this assay for inhibition of PAF-induced rabbit platelet aggregation for illustrative examples of the compounds of this invention.
# [2] = tested on: Ag-induced bronchoconstriction; test: Ag-induced bronchoconstriction in the guinea pig; format: in vivo, guinea pig (Hartley strain); details: for ED50: Cavia porcellus, iv, 10 min, read-out: ID50, Ag-induced bronchoconstriction
# Experimental: Pharmacology Example 3: Ag-induced bronchoconstriction
# All experiments utilized male guinea pigs (Hartley strain), weighing 350 to 500 g. The animal was passively sensitized with rabbit anti-chicken egg albumin (1.3 mg/kg), 17-24 hrs before ovaibumin challenge. Passively sensitized animals were anesthetized with ethyl carbamate 1.5 g/kg, i.p.). An intratracheal cannula was inserted into trachea and indwelling catheters were inserted into the right carotid artery and left jugular vein. The animals were ventilated with a small animal respirator (UGO BASILE 7025, 70 breaths/min, 1 ml/stroke/100 g). To monitor dead or not, mean arterial pressure was measured continuously with a pressure transducer (Physiological Pressure Transducer, MICRON INSTRUMENT MP-15) connected to an amplifier (COULBOURN INSTRUMENT 572-25) and recorder (COULBOURN INSTRUMENT R14-18). The rate of bronchoconstriction was measured as an increase in lung overflow with a bronchospasm transducer (UGO BASILE 7020) from a side arm off the tracheal cannula, and expressed as a percentage of maximum broncoconstriction obtained by clamping off the tracheal cannular. Test compounds or vehicle (0.5% DMSO) were administered through the cannula into the jugular vein and ovalbumin (1.0 mg/kg, i.v.) was administered 10 minutes later. Bronchoconstriction response was compared to that obtained with control group treated with vehicle. Percent inhibition was calculated for each dose. If necessary, log dose-response curves were generated and the ID50 values were determined by regression analysis.
# [3] = tested on: bronchial eosinophilia; test: aeroallergen-induced bronchial infiltration of eosinophils in the bronchoalveolar lavage fluid; format: in vivo, guinea pig (Hartley strain); details: 30 mg/kg p.o., + 4h after aeroallergen challenge; for % Inhibition of bronchial eosinophilia: at 24 hours; for Eosinophils in BALF (Mean ± SEM): counted at 24 hours, vehicle 927 ± 131
# Experimental: Pharmacology Example 4: The aeroallergen-induced bronchial infiltration of eosinophils in the bronchoalveolar lavage fluid.
# Adult, male Hartley-strain guinea pigs weighing 492-735 g were sensitized by intraperitoneal injection of 10 μg ovalbumin (OA) mixed in 100-mg aluminum hydroxide. And guinea pigs were pretreated with pyrilamine (1.0 mg/kg) intraperitoneally 30 min. before aeroallergen challenge. Individual guinea pigs were placed in a two-liter glass chamber and exposed to a five aerosol of OA solution (0.5 mg/ml in saline containing 0.02% antifoal emulsion for a period of 10 min.).
# 4 hours after aero allergen challenge, the guinea pigs received either vehicle or compounds suspended in 1% acacia by oral garage.
# 24 hours after aero allergen challenge, the animals were euthanized with an i.p. overdose of pentobarbital sodium (100 mg/kg). The abdominal cavity was opened, and the animal was exsaguinated by cutting the abdominal aorta. A midline incision was made through the rib cage, exposing the heart and lungs.
# The trachea was cannulated with an 18-gauge stainless steel feeding tube; 20 ml/kg of prewarmed (37° C.) physiological saline was instilled and the BALF was gently withdrawn.
# BALF (amounting to 60-80% of the saline infused) was transferred to a 10 ml vacutainer containing 0.10 ml of 15% EDTA solution and centrifugated at 2400 rpm for 10 min.
# The supernatant was poured off, and the cell pellet was suspended in physiological saline equal to the ratio of BALF recovered (ml) and physiological saline instilled in the lungs (ml), multiplied by two.
# The eosinophils in BALF were counted by Unopette Test 5877.
# The mean numbers of eosinophils±SEM in the BALF of compound-treated animals and corresponding control "vehicle"-treated animals were compared by Student's t-test. A P value of 0.05 or less was considered significant. Table 4 lists results from this assay for inhibition of bronchial eosinophilia for illustrative examples of this invention.
# [4] = tested on: PAF induced Lethality; test: PAF induced Lethality in Mice; format: in vivo; details: 10 mg/kg intraperitoneally, 2 minutes before PAF 10 μg/kg I.V.; alive after 2 hours; control 0
# Experimental: Pharmacology Example 5: PAF induced Lethality in Mice
# PAF given I.V. (10 μg/kg) to mice causes an immediate hypotensive shock leading to death in 1 hour or less. Compounds were given intraperitoneally (dose of compounds : 10 mg/kg) at 2 minutes before the PAF challenge. Animals alive after 2 hours were counted and the activity of test compounds expressed as % survival corrected for any control (saline treated) animals which survived the PAF challenge.
# [5] = tested on: PAF-induced bronchoconstriction; test: PAF-induced bronchoconstriction in the guinea pig; format: in vivo, guinea pig (Hartley strain); details: jugular vein, PAF 100 ng/kg i.v.
# Experimental: Pharmacology Example 2: PAF-induced bronchoconstriction
# All experiments utilized male guinea pigs (Hartley strain), weighing 350 to 450 g, that were anesthetized with ethyl carbamate (1.5 g/kg, i.p.). An intratracheal cannula was inserted into trachea and indwelling catheters were inserted into the right carotid artery and left jugular vein. The animals were ventilated with a small animal respirator (UGO BASILE 7025, 70 breaths/min, 1 ml/stroke/100 g). To monitor dead or not, mean arterial pressure was measured continuously with a pressure transducer (Physiological Pressure Transducer, MICRON INSTRUMENT MP-15) connected to an amplifier (COULBOURN INSTRUMENT 572-25) and recorder (COULBOURN INSTRUMENT R14-18). The rate of bronchoconstriction was measured as an increase in lung overflow with a bronchospasm transducer (UGO BASILE 7020) from a side arm off the tracheal cannula, and expressed as a percentage of maximum bronchoconstriction obtained by clamping off the tracheal cannula. Test compounds or vehicle (0.5% DMSO) were administered through the cannula into the jugular vein and PAF (100 ng/kg, i.v.) was administered. Bronchoconstriction response was compared to that obtained with control group treated with vehicle. Percent inhibition was calculated for each dose. Log dose-response curves were generated and the ID50 values were determined by regression analysis, and the results are presented in Table 2.
# Table 2: Results for inhibition of PAF-induced bronchoconstriction in the guinea pig.
# [6] = 0.1 mg/kg, jugular vein, ovalbumin 1.0 mg/kg i.v. 10 minutes later
# [7] = 0.5 mg/kg, jugular vein, ovalbumin 1.0 mg/kg i.v. 10 minutes later
# [8] = 1.0 mg/kg, jugular vein, ovalbumin 1.0 mg/kg i.v. 10 minutes later
# [9] = jugular vein, ovalbumin 1.0 mg/kg i.v. 10 minutes later
SMILES,pIC50 [1],"% inhibition of Ag-induced bronchoconstriction [2, 6] [%]","% inhibition of Ag-induced bronchoconstriction [2, 7] [%]","% inhibition of Ag-induced bronchoconstriction [2, 8] [%]",ED50 [2] [mg/kg],% Inhibition of bronchial eosinophilia [3] [%],Eosinophils in BALF (Mean ± SEM) [3],Survival rate (%) [4] [%],"pIC50 ([1]; rabbit PRP, PAF 5×10^-9 M)",% inhibition of PAF-induced bronchoconstriction ([5]; 0.01 mg/kg) [%],% inhibition of PAF-induced bronchoconstriction ([5]; 0.02 mg/kg) [%],% inhibition of PAF-induced bronchoconstriction ([5]; 0.04 mg/kg) [%],"ED50 ([5]; Cavia porcellus, iv, read-out: ID50, PAF-induced bronchoconstriction) [mg/kg]","ED50 [2, 9] [mg/kg]"
"CC1C(=O)OC2C(O)C34C5CC(C(C)(C)C)C36C(OC(=O)C6OCc3ccc6c(c3)OCO6)OC4(C(=O)O5)C12O (centres unmarked) [Example 82, 10-piperonyloxy-Ginkgolide B]",7.29,60,94,100,0.09,34,616 ± 145 10^3 cells/m1 BALF,100,,,,,,
"Cc1cnc(COC2C(=O)OC3OC45C(=O)OC6CC(C(C)(C)C)C32C64C(O)C2OC(=O)C(C)C25O)c(C)c1 (centres unmarked) [Example 96, 10-(3,5-dimethyl-2-pyridinyl) -methoxy-Ginkgolide]",,50,97,100,,31,641 ± 134 10^3 cells/m1 BALF,100,7.61,17,26,96,0.023,0.1
"CC1C(=O)OC2C(O)C34C5CC(C(C)(C)C)C36C(OC(=O)C6OCc3ccc(O)cn3)OC4(C(=O)O5)C12O (centres unmarked) [Example 115, 10-(2-(5-hydroxypyridinyl)-methoxy)-Ginkgolide B]",,65,100,100,,,,100,6.82,,,,,0.08
